From US20090275574A1, “NOVEL COMPOUNDS-300” (ASTRAZENECA AB, priority 2008, published 2009) come the findings set out here.

The term EC50 denotes the concentration giving half of the maximal effect.

SMILES strings stand for the structures.

In the first test the target is T1, cloned human M2 receptor (Homo sapiens, UniProt P08172).
T1 construct: purchased Perkin-Elmer RBHM2M; host or cells: Chinese hamster ovary cells (CHO), membranes
T1 sequence (P08172 1-466): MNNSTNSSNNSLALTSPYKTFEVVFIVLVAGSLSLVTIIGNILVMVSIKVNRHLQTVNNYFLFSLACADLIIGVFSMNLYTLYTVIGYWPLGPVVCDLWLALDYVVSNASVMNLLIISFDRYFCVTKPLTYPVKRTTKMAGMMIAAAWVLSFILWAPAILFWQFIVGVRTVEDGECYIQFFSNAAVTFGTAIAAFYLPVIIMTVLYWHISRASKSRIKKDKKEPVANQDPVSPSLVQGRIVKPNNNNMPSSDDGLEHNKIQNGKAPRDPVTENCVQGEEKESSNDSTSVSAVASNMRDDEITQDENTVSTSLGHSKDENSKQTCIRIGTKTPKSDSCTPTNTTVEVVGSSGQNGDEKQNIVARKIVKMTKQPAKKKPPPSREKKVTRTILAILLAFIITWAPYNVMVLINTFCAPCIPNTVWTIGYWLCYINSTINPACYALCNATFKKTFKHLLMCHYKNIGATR
Description: hM2 receptor GTPγS binding. Format: biochemical. The following applies: CHO membranes expressing hM2, [35S]GTPγS binding. On the procedure:
hM2 Receptor GTPγS Binding Membranes produced from Chinese hamster ovary cells (CHO) expressing the cloned human M2 receptor (human Muscarinic receptor subtype 2, gene bank access NM_000739), are obtained from Perkin-Elmer (RBHM2M). The membranes are thawed at 37° C., passed 3 times through a 23-gauge blunt-end needle, diluted in the GTPγS binding buffer (50 mM Hepes, 20 mM NaOH, 100 mM NaCl, 1 mM EDTA, 5 mM MgCl2, pH 7.4, 100 μM DTT). The EC50, IC50 and Emax of the compounds of the invention are evaluated from 10-point dose-response curves (three fold concentration range) done in 60 μl in 384-well non-specific binding surface plate (Corning). Ten microliters from the dose-response curves plate (5× concentration) are transferred to another 384 well plate containing 25 μl of the following: 5 μg of hM2 membranes, 500 μg of Flashblue beads (Perkin-Elmer) and GDP 25 μM. An additional 15 μl containing 3.3× (60,000 dpm) of GTPγ^35S (0.4 nM final) are added to the wells resulting in a total well volume of 50 μl. Basal and maximal stimulated [^35S]GTPγS binding are determined in absence and presence of 30 μM final of acetylcholine agonist. The membranes/beads mix are pre-incubated for 15 minutes at room temperature with 25 μM GDP prior to distribution in plates (12.5 μM final). The reversal of acetylcholine-induced stimulation (2 μM final) of [^35S]GTPγS binding is used to assay the antagonist properties (IC50) of the compounds. The plates are incubated for 60 minutes at room temperature then centrifuged at 400 rpm for 5 minutes. The radioactivity (cpm) is counted in a Trilux (Perkin-Elmer). Values of EC50, IC50 and Emax are obtained using sigmoidal fits of a non-linear curve-fitting program (XLfit version 4.2.2 Excel add-in version 4.2.2 build 18 math 1Q version 2.1.2 build 18) of percent stimulated [^35S]GTPγS binding vs. log(molar ligand). All pEC50 and pIC50 values are reported as arithmetic means±standard error of mean of ‘n’ independent experiments.
For orientation: Binding of GTPγS marks nucleotide exchange on a G protein.
For the compound `O=C1CO[C@H]2CCCC[C@@H]2N1C1CCN(C2CC(COCC3CC3)C2)CC1` (single isomer, unassigned) [Example 41], the EC50 is > 15000 nM. In turn, `O=C1NC[C@H]2CCCC[C@@H]2N1C1CCN(C2CCC(COCC(F)F)CC2)CC1` (single isomer, unassigned) [Example 50] showed an EC50 of 340 nM.

In the next test the target is T2, hM1 (human Muscarinic receptor subtype 1) (Homo sapiens, UniProt P11229).
T2 construct: expressed in transfected cells; host or cells: CHO cells (ATCC)
T2 sequence (P11229 1-460): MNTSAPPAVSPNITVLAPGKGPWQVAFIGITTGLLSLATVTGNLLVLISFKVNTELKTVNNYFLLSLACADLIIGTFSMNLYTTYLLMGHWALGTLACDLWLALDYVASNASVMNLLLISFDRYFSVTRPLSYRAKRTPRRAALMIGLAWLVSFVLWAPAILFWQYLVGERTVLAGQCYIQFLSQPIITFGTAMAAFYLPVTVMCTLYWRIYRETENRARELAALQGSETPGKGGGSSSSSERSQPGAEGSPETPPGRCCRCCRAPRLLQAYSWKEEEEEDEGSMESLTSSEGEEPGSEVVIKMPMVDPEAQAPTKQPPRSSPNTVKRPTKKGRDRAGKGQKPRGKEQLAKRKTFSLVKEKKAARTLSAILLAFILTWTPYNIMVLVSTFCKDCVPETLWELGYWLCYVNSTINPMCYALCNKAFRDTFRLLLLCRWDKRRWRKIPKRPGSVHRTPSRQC
Description: Human M1 calcium mobilization FLIPR assay. Format: cell-based. Particulars: hM1 expressed in CHO cells, intracellular Ca2+ release (FLIPR). On the procedure: (§1) Human M1, rat M1, Human M3 and Human M5 Calcium Mobilization FLIPR™ Assay The compound activity in the present invention (EC50 or IC50) is measured using a 384 plate-based imaging assay that monitors drug induced intracellular Ca^2+ release in whole cells. Activation of hM1 (human Muscarinic receptor subtype 1, gene bank access NM_000738), rM1 (rat Muscarinic receptor subtype 1, gene bank access NM_080773), hM3 (human Muscarinic receptor subtype 3, gene bank access NM_000740NM_000740) and hM5 (human Muscarinic receptor subtype 5, gene bank access NM_0121258), receptors expressed in CHO cells (Chinese hamster ovary cells, ATCC) is quantified in a Molecular Devices FLIPR IITM instrument as an increase in fluorescent signal. Inhibition of hM3 and hM5 by compounds is determined by the decrease in fluorescent signal in response to 2 nM acetylcholine activation. […] Prior to experiment, the cell culture medium is removed from the plates by inversion. […] Plates are incubated at 37° C. for 60 minutes prior to start the experiment. The incubation is terminated by washing the cells four times in assay buffer, leaving a residual 25 μl buffer per well. Cell plates are then transferred to the FLIPR, ready for compound additions. The day of experiment, acetylcholine and compounds are diluted in assay buffer in three-fold concentration range (10 points serial dilution) for addition by FLIPR instrument. For all calcium assays, a baseline reading is taken for 10 seconds followed by the addition of 12.5 μl of compounds, resulting in a total well volume of 37.5 μl. Data is collected every second for 60 pictures and then every 6 seconds for 20 pictures prior to the addition of agonist. For hM3 and hM5, before agonist addition, a second baseline reading is taken for 10 seconds followed by the addition of 12.5 μl of agonist or buffer, producing a final volume of 50 μl. After agonist stimulation, the FLIPR continues to collect data every second for 60 pictures and then every 6 seconds for 20 pictures. The fluorescence emission is read using filter 1 (emission 510-570 nm) by the FLIPR on board CCD camera. Calcium mobilization output data are calculated as the maximal relative fluorescence unit (RFU) minus the minimal value for both compound and agonist reading frame (except for hM1 and rM1 using only the maximal RFU). Data are analyzed using sigmoidal fits of a non-linear curve-fitting program (XLfit version 4.2.2 Excel add-in version 4.2.2 build 18 math 1Q version 2.1.2 build 18). All pEC50 and pIC50 values are reported as arithmetic means±standard error of mean of ‘n’ independent experiments.
As for `C#CCOC1CCC(N2CCC(N3C(=O)NC[C@H]4CCCC[C@@H]43)CC2)CC1` (mixture of isomers) [Example 09, (4aR,8aS)-1-(1-(4-(prop-2-ynyloxy)cyclohexyl)piperidin-4-yl)octahydroquinazolin-2(1 H)-one], the EC50 came out at 31 nM.

Take `CCC1CCC(N2CCC(N3C(=O)NC[C@H]4CCCC[C@@H]43)CC2)CC1` (mixture of isomers) [Example 11, (4aR,8aS)-1-(1-(4-ethylcyclohexyl)piperidin-4-yl)octahydroquinazolin-2(1H)-one]: the EC50 turned out to be 43 nM. For the compound `CCCOC1CCC(N2CCC(N3C(=O)NC[C@H]4CCCC[C@@H]43)CC2)CC1` (single isomer, unassigned) [Example 05], the EC50 is 160 nM.

Consider `CC(C)OC1CCC(N2CCC(N3C(=O)NC[C@H]4CCCC[C@@H]43)CC2)CC1` (single isomer, unassigned) [Example 07], for which the EC50 worked out at 660 nM. In the case of `CCCOC1CCC(N2CCC(N3C(=O)CO[C@H]4CCCC[C@@H]43)CC2)CC1` (single isomer, unassigned) [Example 16], the EC50 amounted to 190 nM. For `O=C1CO[C@H]2CCCC[C@@H]2N1C1CCN(C2CCC(OCC3CC3)CC2)CC1` (single isomer, unassigned) [Example 20], the EC50 turned out to be 170 nM.

With `O=C1CO[C@H]2CCCC[C@@H]2N1C1CCN(C2CCC(OCC3CC3)CC2)CC1` (single isomer, unassigned) [Example 21], the EC50 turned out to be 110 nM. In the case of `CCOCC1(C)CCC(N2CCC(N3C(=O)CO[C@H]4CCCC[C@@H]43)CC2)CC1` (single isomer, unassigned) [Example 30], the EC50 was determined as 200 nM.

With `CCOCC1(C)CCC(N2CCC(N3C(=O)CO[C@H]4CCCC[C@@H]43)CC2)CC1` (single isomer, unassigned) [Example 31], the EC50 amounted to 190 nM.

In the case of `CCOC[C@H]1CC[C@@H](N2CCC(N3C(=O)COC4CCCCC43)CC2)CC1` (single isomer, unassigned) [Example 33], the EC50 was 110 nM. As for `CCOC[C@H]1CC[C@@H](N2CCC(N3C(=O)COC4CCCCC43)CC2)CC1` (single isomer, unassigned) [Example 34], the EC50 worked out at 80 nM. Still for that read-out and setting: as for `CC(C)OCC1CCC(N2CCC(N3C(=O)CO[C@@H]4CCC(F)(F)C[C@H]43)CC2)CC1` (single isomer, unassigned) [Example 35], the figure is 180 nM. `CC(C)OCC1CCC(N2CCC(N3C(=O)CO[C@@H]4CCC(F)(F)C[C@H]43)CC2)CC1` (single isomer, unassigned) [Example 36]: the EC50 worked out at 310 nM.

Regarding `O=C1CO[C@H]2CCCC[C@@H]2N1C1CCN(C2CC(COCC3CC3)C2)CC1` (single isomer, unassigned) [Example 41], the EC50 was 52 nM.

Take `O=C1COC2CCCC2N1C1CCN([C@H]2CC[C@@H](COCC3CC3)CC2)CC1` (single isomer, unassigned) [Example 49]: the EC50 came to 110 nM. For `O=C1NC[C@H]2CCCC[C@@H]2N1C1CCN(C2CCC(COCC(F)F)CC2)CC1` (single isomer, unassigned) [Example 50], the EC50 worked out at 0.76 nM. On the same count and under the same terms, as for `O=C1NC[C@H]2CCCC[C@@H]2N1C1CCN(C2CCCC2)CC1` [Example 10, (4aR,8aS)-1-(1-cyclopentylpiperidin-4-yl)octahydroquinazolin-2(1H)-one], the figure is 68 nM; as for `O=C1NC[C@H]2CCCC[C@@H]2N1C1CCN(C2CCCCC2)CC1` [Example 12, (4aR,8aS)-1-(1-cyclohexylpiperidin-4-yl)octahydroquinazolin-2(1H)-one], 60 nM. `O=C1CO[C@@H]2CCCC[C@H]2N1C1CCN([C@H]2CC[C@@H](COCC3CC3)CC2)CC1` [Example 32, (4aR,8aR)-4-(1-((1s,4S)-4-((cyclopropylmethoxy)methyl)cyclohexyl)piperidin-4-yl)hexahydro-2H-benzo[b][1,4]oxazin-3(4H)-one]: the EC50 is 190 nM. For `CCOC[C@H]1CC[C@@H](N2CCC(N3C(=O)CO[C@@H]4CCCC[C@H]43)CC2)C1` [Example 46, (4aR,8aR)-4-(1-((1R,3S)-3-(ethoxymethyl)cyclopentyl)piperidin-4-yl)hexahydro-2H-benzo[b][1,4]oxazin-3(4H)-one], the EC50 was 290 nM. Consider `O=C1CO[C@@H]2CCC[C@@H]2N1C1CCN([C@H]2CC[C@@H](COCC3CC3)CC2)CC1` [Example 47, (4aS,7aR)-4-(1-((1s,4R)-4-((cyclopropylmethoxy)methyl)cyclohexyl)piperidin-4-yl)hexahydrocyclopenta[b][1,4]oxazin-3(2H)-one], for which the EC50 was determined as 93 nM.

In another test the target is T3, hM3 (human Muscarinic receptor subtype 3) (Homo sapiens, UniProt P20309).
T3 construct: expressed in transfected cells; host or cells: CHO cells (ATCC)
T3 sequence (P20309 whole entry): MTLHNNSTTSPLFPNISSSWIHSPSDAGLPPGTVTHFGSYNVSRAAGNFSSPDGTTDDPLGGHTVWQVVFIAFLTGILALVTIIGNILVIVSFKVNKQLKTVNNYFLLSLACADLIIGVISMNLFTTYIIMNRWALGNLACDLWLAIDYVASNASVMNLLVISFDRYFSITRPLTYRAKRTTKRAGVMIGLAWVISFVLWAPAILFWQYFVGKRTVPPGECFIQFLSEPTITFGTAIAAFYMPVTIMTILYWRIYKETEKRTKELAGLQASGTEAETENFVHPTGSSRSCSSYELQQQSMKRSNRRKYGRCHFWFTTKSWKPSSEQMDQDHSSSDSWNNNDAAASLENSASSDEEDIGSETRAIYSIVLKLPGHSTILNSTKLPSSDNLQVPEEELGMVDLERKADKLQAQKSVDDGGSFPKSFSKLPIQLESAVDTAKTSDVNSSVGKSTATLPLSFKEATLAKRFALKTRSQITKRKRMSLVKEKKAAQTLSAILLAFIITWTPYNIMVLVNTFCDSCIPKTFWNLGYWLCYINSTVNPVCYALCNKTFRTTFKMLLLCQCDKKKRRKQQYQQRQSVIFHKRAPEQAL
Description: Human M3 calcium mobilization FLIPR assay. Type of test: cell-based. The following applies: hM3 expressed in CHO cells, intracellular Ca2+ release (FLIPR). On the procedure:
as §1
A general note: A change in cytosolic calcium serves as a functional read-out for many receptors and channels.
For the compound `CCC1CCC(N2CCC(N3C(=O)NC[C@H]4CCCC[C@@H]43)CC2)CC1` (mixture of isomers) [Example 11, (4aR,8aS)-1-(1-(4-ethylcyclohexyl)piperidin-4-yl)octahydroquinazolin-2(1H)-one], the EC50 is > 40000 nM.

Consider `O=C1NC[C@H]2CCCC[C@@H]2N1C1CCN(C2CCCCC2)CC1` [Example 12, (4aR,8aS)-1-(1-cyclohexylpiperidin-4-yl)octahydroquinazolin-2(1H)-one], for which the EC50 is > 40000 nM.
